The record followed here is ChEMBL document CHEMBL1137093, “Synthesis, receptor binding and functional studies of mesoridazine stereoisomers” (Bioorg Med Chem Lett, 2004).

SMILES strings stand for the structures. Values joined by “and” are separate entries in the source; they are usually repeats but may differ in a detail not shown here. Equal entries are not always repeated.

As usually defined, the Ki is a measure of affinity in units of concentration, obtained from inhibition or displacement. In general, IC50 refers to the concentration that gives 50% inhibition. The term Kb denotes the equilibrium dissociation constant of an antagonist, usually derived from a functional assay. High values mean lower antagonist affinity, low ones higher antagonist affinity.

Assay [1] concerns the target T1, 5-hydroxytryptamine receptor 2C (Rattus norvegicus, UniProt P08909).
T1 sequence (P08909 whole entry): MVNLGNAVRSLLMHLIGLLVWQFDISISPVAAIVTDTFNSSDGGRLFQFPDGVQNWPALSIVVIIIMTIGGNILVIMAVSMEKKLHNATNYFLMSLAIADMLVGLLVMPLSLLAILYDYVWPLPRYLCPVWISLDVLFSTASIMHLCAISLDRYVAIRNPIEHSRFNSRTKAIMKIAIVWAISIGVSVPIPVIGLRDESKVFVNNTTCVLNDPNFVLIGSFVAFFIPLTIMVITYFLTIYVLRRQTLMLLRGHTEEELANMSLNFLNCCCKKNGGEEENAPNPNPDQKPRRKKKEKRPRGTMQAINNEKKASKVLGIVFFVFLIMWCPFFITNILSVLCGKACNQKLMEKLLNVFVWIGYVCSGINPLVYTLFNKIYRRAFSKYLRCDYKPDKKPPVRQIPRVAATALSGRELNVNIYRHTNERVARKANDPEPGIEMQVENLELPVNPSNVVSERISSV
Briefly: Binding affinity towards rat 5-hydroxytryptamine 2C receptor was determined by using [3H]mesulergine as radioligand.

The target of assay [2] is T2, D(1A) dopamine receptor (Homo sapiens, UniProt P21728). Briefly: Antagonism of D1 dopamine receptor of human was determined in C6D1 low-density cells by using cyclic AMP assay.
T2 sequence (P21728 whole entry): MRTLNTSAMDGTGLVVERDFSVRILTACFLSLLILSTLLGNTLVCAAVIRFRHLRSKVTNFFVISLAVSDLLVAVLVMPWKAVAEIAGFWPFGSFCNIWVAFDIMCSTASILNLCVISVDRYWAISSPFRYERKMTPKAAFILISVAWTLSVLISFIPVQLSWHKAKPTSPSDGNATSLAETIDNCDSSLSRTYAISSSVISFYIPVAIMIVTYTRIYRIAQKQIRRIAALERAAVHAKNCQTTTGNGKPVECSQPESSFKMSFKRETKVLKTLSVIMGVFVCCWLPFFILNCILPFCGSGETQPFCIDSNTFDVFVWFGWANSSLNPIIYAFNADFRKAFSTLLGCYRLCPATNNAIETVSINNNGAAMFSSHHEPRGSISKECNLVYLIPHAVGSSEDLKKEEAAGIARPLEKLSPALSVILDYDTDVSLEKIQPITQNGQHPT
Assay [3] concerns the target T3, D(2) dopamine receptor (Homo sapiens, UniProt P14416).
Assay [4] addresses T4, 5-hydroxytryptamine receptor 2A (Rattus norvegicus, UniProt P14842). Briefly: Binding affinity towards rat 5-hydroxytryptamine 2A receptor was determined by using [3H]-ketanserin as radioligand.
For assay [5], the target named is T4, 5-hydroxytryptamine receptor 2A. The assay can be described thus: Antagonism of 5-hydroxytryptamine 2A receptor was determined using rat aortal strip contraction assay.
The target in assay [6] is T3, D(2) dopamine receptor. The source holds these as a separate data set.
Description: Concentration required to inhibit [3H]YM-09151-2 binding to human D2 dopamine receptor
For assay [7], the target named is T3, D(2) dopamine receptor. This is another data set of the same source.
Description: High binding affinity towards human D2 dopamine receptor was determined by using [3H]YM-09151-2 as radioligand
A short description of assay [8]: Antagonism was determined as concentration required to inhibit quinpirole-induced mitogenesis in CHOp cells.
Assay [9] addresses 5-hydroxytryptamine receptor 2A (Rattus norvegicus) (UniProt P14842).
In assay [10] the target is T5, 5-hydroxytryptamine receptor 1A (Homo sapiens, UniProt P08908).
T5 sequence (P08908 whole entry): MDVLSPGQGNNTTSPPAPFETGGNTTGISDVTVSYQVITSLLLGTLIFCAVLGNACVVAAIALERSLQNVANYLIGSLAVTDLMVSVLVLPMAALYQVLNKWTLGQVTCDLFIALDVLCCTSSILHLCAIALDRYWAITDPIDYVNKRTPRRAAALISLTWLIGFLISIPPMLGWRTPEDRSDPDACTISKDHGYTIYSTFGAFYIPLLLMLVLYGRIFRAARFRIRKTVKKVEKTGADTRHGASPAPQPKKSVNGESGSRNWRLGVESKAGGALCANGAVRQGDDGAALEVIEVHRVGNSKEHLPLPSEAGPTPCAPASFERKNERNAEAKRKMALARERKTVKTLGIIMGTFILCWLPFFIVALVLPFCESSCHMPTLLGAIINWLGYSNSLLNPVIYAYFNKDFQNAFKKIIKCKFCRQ
The assay can be described thus: Binding affinity towards human 5-hydroxytryptamine 1A receptor was determined by using [3H]8-OH-DPAT as radioligand.

Assay [11] deals with T2, D(1A) dopamine receptor.
Description: Binding affinity towards human D1 dopamine receptor was determined by using [3H]-SCH- 23390 as radioligand
Assay [12] concerns the target D(3) dopamine receptor (Homo sapiens, UniProt P35462).
Description: Binding affinity towards human D3 dopamine receptor was determined by using [3H]YM-09151-2 as radioligand
Assay [13] has as its target T3, D(2) dopamine receptor. This is another data set of the same source.
Description: Binding affinity towards human D2 dopamine receptor was determined by using [3H]YM-09151-2 as radioligand

T3 sequence (P14416 whole entry): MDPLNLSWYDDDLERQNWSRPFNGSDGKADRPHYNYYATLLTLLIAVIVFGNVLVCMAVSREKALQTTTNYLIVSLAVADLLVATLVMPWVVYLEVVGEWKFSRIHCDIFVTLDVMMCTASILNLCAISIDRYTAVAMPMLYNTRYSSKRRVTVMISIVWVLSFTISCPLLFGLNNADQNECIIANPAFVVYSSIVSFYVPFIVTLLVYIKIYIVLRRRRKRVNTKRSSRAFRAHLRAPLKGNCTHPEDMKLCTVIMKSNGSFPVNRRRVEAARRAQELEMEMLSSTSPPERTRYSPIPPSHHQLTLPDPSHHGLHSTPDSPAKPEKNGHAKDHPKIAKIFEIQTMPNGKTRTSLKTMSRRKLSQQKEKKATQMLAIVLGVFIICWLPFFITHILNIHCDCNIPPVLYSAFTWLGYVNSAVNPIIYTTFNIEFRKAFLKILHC
5-hydroxytryptamine receptor 2A (Rattus norvegicus), sequence (P14842 whole entry): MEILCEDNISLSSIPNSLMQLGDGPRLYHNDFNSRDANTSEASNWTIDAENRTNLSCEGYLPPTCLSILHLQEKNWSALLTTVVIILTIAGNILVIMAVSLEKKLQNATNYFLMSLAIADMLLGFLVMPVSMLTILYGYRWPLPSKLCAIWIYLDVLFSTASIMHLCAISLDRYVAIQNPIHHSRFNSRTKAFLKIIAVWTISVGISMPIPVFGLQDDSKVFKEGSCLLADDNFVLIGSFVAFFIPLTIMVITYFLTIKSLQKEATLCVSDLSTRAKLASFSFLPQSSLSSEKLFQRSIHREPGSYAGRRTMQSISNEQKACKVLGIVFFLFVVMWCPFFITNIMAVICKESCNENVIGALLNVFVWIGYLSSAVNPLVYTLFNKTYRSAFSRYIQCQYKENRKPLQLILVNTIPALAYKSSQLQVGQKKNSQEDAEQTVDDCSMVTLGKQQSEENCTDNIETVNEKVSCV
T4 sequence (P14842 whole entry): as above
D(3) dopamine receptor, sequence (P35462 whole entry): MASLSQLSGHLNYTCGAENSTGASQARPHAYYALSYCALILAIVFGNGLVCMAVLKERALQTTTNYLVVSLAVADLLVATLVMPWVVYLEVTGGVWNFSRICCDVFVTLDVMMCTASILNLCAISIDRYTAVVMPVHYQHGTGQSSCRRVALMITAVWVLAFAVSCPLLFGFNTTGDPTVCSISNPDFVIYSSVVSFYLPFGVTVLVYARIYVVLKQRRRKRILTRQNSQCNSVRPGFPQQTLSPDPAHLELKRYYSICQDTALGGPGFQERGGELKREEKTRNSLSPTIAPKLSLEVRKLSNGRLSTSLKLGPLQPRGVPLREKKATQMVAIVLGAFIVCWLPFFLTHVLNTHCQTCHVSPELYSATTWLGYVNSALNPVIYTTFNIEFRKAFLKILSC

Regarding `CN1CCCC[C@@H]1CCN1c2ccccc2Sc2ccc([S@@](C)=O)cc21`, the Ki in assay [1] amounted to 112 nM; in assay [3] it was 1840 nM; in assay [4], 19 nM; in assay [7] it was 1.2 nM; in assay [10], 64 nM; in [11] it was 317 nM. For the same compound, the Ki in assay [12] came out at 26 nM. The 50% inhibitory concentration (IC50) in [2] was 460 nM; in [6], 63 nM; in [8], 4 nM and 16 nM. In assay [5], this compound gave a Kb of 2.51 nM. Besides, the Ke in assay [9] was found to be 2.5 nM.
In assay [9], `CN1CCCCC1CCN1c2ccccc2Sc2ccc([S+](C)[O-])cc21` (single isomer, unassigned; 2) [listing 1 of 2 here] gave a Ke of 7 nM.
In the case of `CN1CCCCC1CCN1c2ccccc2Sc2ccc([S+](C)[O-])cc21` (single isomer, unassigned; 2) [listing 2 of 2 here], the Ki turned out to be 412 nM in assay [1]; 1540 nM in [3]; 55 nM in assay [4]; 2.2 nM in assay [7]; 105 nM in assay [10]; 103 nM in assay [11]. In assay [12], this compound showed a Ki of 23 nM. Further, the IC50 was 137 nM in [2]; 77 nM in assay [6]; 10 nM and 35 nM in assay [8]. In [5], this compound gave a Kb of 6.31 nM.
On to `CN1CCCCC1CCN1c2ccccc2Sc2ccc([S+](C)[O-])cc21` (single isomer, unassigned; 3) [listing 1 of 2 here], for which the Ke in assay [9] amounted to 28 nM.
`CN1CCCCC1CCN1c2ccccc2Sc2ccc([S+](C)[O-])cc21` (single isomer, unassigned; 3) [listing 2 of 2 here]: the Ki in assay [1] was found to be 704 nM; in [4], 112 nM; in [10], 349 nM; in assay [13], 304 nM; in assay [11], 1960 nM; in assay [12], 95 nM. The Kb in [5] is 25.1 nM. The IC50 in [6] was 837 nM; in assay [8] it was 161 nM and 256 nM.
Regarding `CN1CCCC[C@H]1CCN1c2ccccc2Sc2ccc([S@](C)=O)cc21`, the Ki came out at 410 nM in assay [1]; 414 nM in assay [4]; 395 nM in [10]; 426 nM in assay [13]; 620 nM in assay [11]; 197 nM in assay [12]. Besides, the IC50 is 1250 nM in assay [2]; 232 nM and 408 nM in assay [8].
